Measurements published in ChEMBL document CHEMBL4270602, “Design, synthesis, docking studies and biological screening of 2-thiazolyl substituted -2,3-dihydro-1H-naphtho[1,2-e][1,3]oxazines as potent HIV-1 reverse transcriptase inhibitors” (Eur J Med Chem, 2018).

Assays:
[1] = tested on: Human immunodeficiency virus 1; assay: Antiviral activity against Human immunodeficiency virus 1 NL4-3 infected in human CEM-GFP cells after 7 days by p24 ELISA; type: functional, organism-based; settings: Human immunodeficiency virus 1, NL4-3, CEM-GFP, 168 h
[2] = Cytotoxicity against human CEM-GFP cells after 48 hrs by MTT assay; type: cell-based
[3] = target: Human immunodeficiency virus type 1 reverse transcriptase (Human immunodeficiency virus 1) (UniProt Q72547); assay: Potency index, ratio of inophyllym B EC50 to compound EC50 for inhibition of recombinant HIV-1 reverse transcriptase RNA-dependent DNA polymerase activity
[4] = target: Human immunodeficiency virus type 1 reverse transcriptase (Human immunodeficiency virus 1, UniProt Q72547); assay: Inhibition of recombinant HIV-1 reverse transcriptase RNA-dependent DNA polymerase activity using poly(rA)/oligo(dT)16 as template/primer preincubated for 5 to 10 mins followed by template/primer addition and measured after 16 hrs by colorimetric assay
[5] = Therapeutic index, ratio of CC50 for human CEM-GFP cells to IC50 for HIV-1 NL4-3 infected in human CEM-GFP cells; type: toxicity, cell-based; settings: read-out: Ratio CC50/IC50
[6] = target: Human immunodeficiency virus type 1 reverse transcriptase (Human immunodeficiency virus 1) (UniProt Q72547); assay: Potency index, ratio of efavirenz EC50 to compound EC50 for inhibition of recombinant HIV-1 reverse transcriptase RNA-dependent DNA polymerase activity

IC50 [1] [nM]	Ratio EC50 [3]	EC50 [4] [nM]	Ratio EC50 [6]	SMILES	CC50 at 48 h [2] [nM]	selectivity ratio [5]
95.5	3	79	–	FC(F)(F)c1ccc(-c2csc(N3COc4ccc5ccccc5c4C3)n2)cc1	24700	258
55.7	–	–	–	Cc1cn([C@H]2C[C@H](N=[N+]=[N-])[C@@H](CO)O2)c(=O)[nH]c1=O [ZIDOVUDINE]	13100	236
253	–	192	–	COc1ccc2c3c(ccc2c1)OCN(c1nc(-c2ccc(F)cc2)cs1)C3	24300	96.2
82.7	–	66	2.5	COc1ccc2c3c(ccc2c1)OCN(c1nc(-c2ccc(C(F)(F)F)cc2)cs1)C3	26300	318
–	–	225	–	C[C@H]1[C@H](O)c2c(c3c(c4c(-c5ccccc5)cc(=O)oc24)OC(C)(C)C=C3)O[C@@H]1C	–	–
239	–	210	–	Fc1ccc(-c2csc(N3COc4ccc5ccccc5c4C3)n2)cc1	25300	106
163	–	–	–	O=C1Nc2ccc(Cl)cc2[C@@](C#CC2CC2)(C(F)(F)F)O1 [EFAVIRENZ]	40500	–
